Experimental data: patent publication US9790169B2, “IDO inhibitors” (BRISTOL-MYERS SQUIBB COMPANY, priority 2015, dated 2017)

Target: human IDO1 (Homo sapiens, UniProt P14902)
Assay: Assessment of human IDO-1 inhibitory activity in Hela cells (Interferon-gamma stimulated HeLa cells, Ehrlich reagent, absorbance 490 nm)
Format: cell-based
Set-up: endogenous in cells; host or cells: HeLa cells stimulated with interferon-gamma
Details: Hela Human IDO-1 cellular assay
How it was run: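 HeLa cells pre-incubated with compound 1 h at 37 °C, then stimulated with human IFN-γ (10 ng/ml final) or murine IFN-γ (5 ng/ml final) for 18 h. Kynurenine read with Ehrlich reagent at 490 nm after TCA (3%) and 50 °C treatment; IC50 normalized to unstimulated (100%) and IFN-γ-only (0%) wells.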

Chain of human IDO1 (P14902 whole entry): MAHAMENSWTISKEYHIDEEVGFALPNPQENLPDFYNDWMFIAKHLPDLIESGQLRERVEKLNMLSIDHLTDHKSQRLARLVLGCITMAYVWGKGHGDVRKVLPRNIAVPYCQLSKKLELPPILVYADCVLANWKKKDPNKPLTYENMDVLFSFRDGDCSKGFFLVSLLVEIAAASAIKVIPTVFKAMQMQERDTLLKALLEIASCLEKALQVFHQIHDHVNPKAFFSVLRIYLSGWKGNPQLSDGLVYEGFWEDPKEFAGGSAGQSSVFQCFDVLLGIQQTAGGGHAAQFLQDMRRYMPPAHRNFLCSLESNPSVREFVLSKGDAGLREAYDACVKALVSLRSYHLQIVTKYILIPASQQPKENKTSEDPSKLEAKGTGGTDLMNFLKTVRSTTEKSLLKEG

Row | SMILES | IC50 [nM]
1 | CCC1COCCN1c1ccc([C@@H](COC)CC(=O)O)cc1Nc1ccc(F)cc1 (single isomer, unassigned) [Example 1301] | > 50
2 | CCOc1ncc(Nc2cc([C@H](CC)CC(O)C(F)(F)F)ccc2N(CC)C2CCOCC2)cn1 (single isomer, unassigned) [Example 1336 D1] | < 50
3 | CCC(CC(=O)O)c1ccc(N2CC(O)(c3ccc(F)cc3)C2)c(Nc2ccc(Cl)cc2)c1 (single isomer, unassigned) [Example 1253 E1, 3-(3-((4-Chlorophenyl)amino)-4-(3-(4-fluorophenyl)-3-hydroxyazetidin-1-yl)phenyl)pentanoic acid] | < 50
4 | COCCN(c1ccc(C(COC)CC(=O)O)cc1NC(=O)Nc1ccc(Cl)cc1F)C1CCOCC1 (single isomer, unassigned) [Example 262, 3-(3-(3-(4-chloro-2-fluorophenyl)ureido)-4-((2-methoxyethyl)(tetrahydro-2H-pyran-4-yl)amino)phenyl)-4-methoxybutanoic acid] | > 50
5 | COCC(CC(=O)O)c1ccc(N2C[C@@H](C)O[C@@H](C)C2)c(NC(=O)Nc2ccc(C#N)cc2)c1 (single isomer, unassigned) [Example 605 Diastereomer 1] | > 50
6 | CCC(CC(=O)O)c1ccc(N2CCN(C(=O)OC(C)(C)C)CC2)c(Nc2ccc(C#N)cc2)c1 (single isomer, unassigned) [Example 674 Enantiomer 1, 3-(4-(4-(tert-Butoxycarbonyl)piperazin-1-yl)-3-((4-cyanophenyl)amino)phenyl)pentanoic acid] | < 50
7 | COCC(CC(=O)O)c1ccc(N2CCOC(C)(C)C2)c(Nc2ccc(C#N)cc2)c1 (single isomer, unassigned) [Example 1316, 3-(3-((4-cyanophenyl)amino)-4-(2,2-dimethylmorpholino)phenyl)-4-methoxybutanoic acid] | > 50
8 | CCN(c1ccc([C@@H](COC)CC(=O)O)cc1Nc1ncc(Cl)cn1)C1CCOCC1 (single isomer, unassigned) [Example 357] | < 50
9 | CCN(c1ccc(C(COC)CC(=O)O)cc1Nc1ccc(F)cc1)C1CCS(=O)(=O)CC1 (single isomer, unassigned) [Example 172, 3-(4-((1,1-dioxidotetrahydro-2H-thiopyran-4-yl)(ethyl)amino)-3-((4-fluorophenyl)amino)phenyl)-4-methoxybutanoic acid] | < 50
10 | CCOc1ncc(Nc2cc(C(COC)CC(=O)O)ccc2N2CCOC[C@H]2C(C)C)cn1 (single isomer, unassigned) [Example 914] | > 50
11 | CCN(c1ccc([C@@H](COC)CC(=O)O)cc1Nc1cccc(C#N)c1)C1CCOCC1 (single isomer, unassigned) [Example 368] | < 50
12 | COCC(CC(=O)O)c1ccc(N2C[C@@H]3C[C@H]2CN3C(=O)OC(C)(C)C)c(Nc2ccc(C#N)cc2)c1 (single isomer, unassigned) [Example 451 Diastereomer 1] | < 50
13 | CCN(c1ccc([C@@H](COC(C)C)CC(=O)O)cc1Nc1ccc(C#N)cc1)C1CCOCC1 (single isomer, unassigned) [Example 324] | < 50
14 | COCC(CC(=O)O)c1ccc(N2C[C@@H](C)O[C@@H](C)C2)c(NC(=O)Nc2ccc(Cl)cc2F)c1 (single isomer, unassigned) [Example 606] | > 50
15 | CC[C@H](CC(=O)O)c1ccc(N(CC)C2CCOCC2)c(Nc2cnc(N(C)C)nc2)c1 (single isomer, unassigned) [Example 502] | < 50
16 | CCN(c1ccc(C(C)CC(=O)O)cc1Nc1cnc(OCC2CC2)nc1)C1CCOCC1 (single isomer, unassigned) [Example 626, 3-(3-((2-(cyclopropylmethoxy)pyrimidin-5-yl)amino)-4-(ethyl(tetrahydro-2H-pyran-4-yl)amino)phenyl)butanoic acid] | < 50
17 | COCC(CC(=O)O)c1ccc(N2CCOC[C@H]2C(C)C)c(Nc2ccc(C#N)cc2)c1 (single isomer, unassigned) [Example 909] | < 50
18 | CCC(CC(=O)O)c1cc(F)c(N(CC)C2CCOCC2)c(Nc2cnc(OC)nc2)c1 (single isomer, unassigned) [Example 135, 3-(4-(ethyl(tetrahydro-2H-pyran-4-yl)amino)-3-fluoro-5-((2-methoxypyrimidin-5-yl)amino)phenyl) pentanoic acid] | < 50

Next, values leading:

Row | IC50 [nM] | SMILES
19 | < 5 | CCOc1ccc(Nc2cc([C@H](CC)CC(=O)O)ccc2N(CC)C2CCOCC2)cn1 (single isomer, unassigned) [Example 509]
20 | < 5 | COCC(CC(=O)O)c1ccc(N(CC(F)F)C2CCOCC2)c(Nc2ccc(Cl)cc2)c1 (single isomer, unassigned) [Example 321 Enantiomer 1, 3-(3-((4-Chlorophenyl)amino)-4-((2,2-difluoroethyl)(tetrahydro-2H-pyran-4-yl)amino)phenyl)-4-methoxybutanoic acid]
21 | < 5 | CCc1ncc(Nc2cc([C@@H](CC)CC(=O)O)ccc2N(CC)C2CCOCC2)cn1 (single isomer, unassigned) [Example 1362]
22 | < 5 | CCOc1cnc(Nc2cc([C@@H](CC)CC(=O)O)ccc2N(CC)C2CCOCC2)cn1 (single isomer, unassigned) [Example 465]
23 | < 5 | CCC(CC(=O)O)c1ccc(N(CCOC)C2CCOCC2)c(Nc2ccc(C#N)cc2)c1 (single isomer, unassigned) [Example 1258, 3-(3-((4-cyanophenyl)amino)-4-((2-methoxyethyl)(tetrahydro-2H-pyran-4-yl)amino)phenyl)pentanoic acid]
24 | < 5 | CC(CC(=O)O)c1ccc(N(CC(C)(C)O)C2CCCCC2)c(Nc2ccc(Cl)cc2)c1 (single isomer, unassigned) [Example 48 Enantiomer 1, 3-(3-((4-Chlorophenyl)amino)-4-(cyclohexyl(2-hydroxy-2-methylpropyl)amino)phenyl)butanoic acid]
25 | < 5 | CCC(CC(=O)O)c1ccc(N2CC(O)(c3ccc(F)cc3)C2)c(Nc2ccc(Cl)cc2)c1 (single isomer, unassigned) [Example 1253 E2, 3-(3-((4-Chlorophenyl)amino)-4-(3-(4-fluorophenyl)-3-hydroxyazetidin-1-yl)phenyl)pentanoic acid]
26 | < 5 | CCC(CC(=O)O)c1cc(F)c(N(CC)C2CCOCC2)c(Nc2ccc(Cl)cc2)c1 (single isomer, unassigned) [Example 133, 3-(3-((4-Chlorophenyl)amino)-4-(ethyl(tetrahydro-2H-pyran-4-yl)amino)-5-fluorophenyl)pentanoic acid]
27 | < 5 | CCC(CC(=O)O)c1ccc(N(CC)C2CCCOC2)c(Nc2ccc(C#N)cc2)c1 (single isomer, unassigned) [Example 61, 3-(3-((4-cyanophenyl)amino)-4-(ethyl(tetrahydro-2H-pyran-3-yl)amino)phenyl)pentanoic acid]
28 | < 5 | CCC(CC(=O)O)c1ccc(N(CC)C2CCS(=O)(=O)CC2)c(Nc2ccc(Cl)cc2)c1 (single isomer, unassigned) [Example 334 Enantiomer 1, 3-(3-((4-Chlorophenyl)amino)-4-((1,1-dioxidotetrahydro-2H-thiopyran-4-yl)(ethyl)amino)phenyl)pentanoic acid]
